Measurements as given in patent US8507509B2, “Saturated and insaturated bi- or tricyclic aryloxyacetamine derivatives and their use as fungicides” (Syngenta Crop Protection LLC, priority 2007, dated 2013).

Key:
[1] = tested on: Phytophthora infestans; assay: whole plant or invertebrate; format: in vivo; conditions: in Solanum lycopersicum, foliar, 96 h, read-out: control of fungal infection, Phytophthora infestans
[2] = tested on: Septoria nodorum; assay: Septoria nodorum (wheat glume blotch), wheat leaf segment assay, preventive; format: in vivo; conditions: Parastagonospora nodorum, foliar, 96 h; 200 ppm; wheat leaf segments; assessed four days after inoculation; read-out: control of fungal infection, Septoria nodorum
[3] = tested on: Erysiphe graminis f.sp. tritici; assay: Erysiphe graminis f.sp. tritici (wheat powdery mildew), wheat leaf segment assay, preventive; format: in vivo; conditions: Blumeria graminis, foliar, 96 h; 200 ppm; wheat leaf segments; assessed four days after inoculation; read-out: control of fungal infection, Etysiphe graminis f.sp. tritici
[4] = tested on: Puccinia recondita f.sp. tritici; assay: Puccinia recondita f.sp. tritici (wheat brown rust), wheat leaf segment assay, preventive; format: in vivo; conditions: foliar, 216 h, 200 ppm, wheat leaf segments, assessed nine days after inoculation, read-out: control of fungal infection, Puccinia recondite f.sp. tritici
[5] = tested on: Plasmopara viticola; assay: Plasmopara viticola (downy mildew of grapevine), grapevine leaf disk assay, preventive; format: in vivo; conditions: foliar, 168 h, 200 ppm, grapevine leaf disks, assessed seven days after inoculation, read-out: control of fungal infection, Plasmopara viticola
[6] = tested on: Septoria tritici; assay: Septoria tritici (leaf blotch), liquid culture growth inhibition in nutrient broth; format: cell-based; conditions: Zymoseptoria tritici; 200 ppm; PDB broth, 24 C; inhibition of growth determined photometrically after 72 hrs; read-out: control of fungal infection, Septoria tritici
[7] = tested on: Botrytis cinerea; assay: Botrytis cinerea (grey mould), bean leaf disk assay, preventive; format: in vivo; conditions: foliar, 96 h, 200 ppm, bean leaf disks, assessed four days after inoculation, read-out: control of fungal infection, Botrytis cinerea
[8] = tested on: Pythium ultimum; assay: Pythium ultimum (Damping off), liquid culture growth inhibition in potato dextrose broth; format: cell-based; conditions: Globisporangium ultimum; 20 ppm; potato dextrose broth, 24° C.; inhibition of growth determined photometrically after 48 hours; read-out: control of fungal infection, Pythium ultimum
[9] = tested on: Fusarium culmorum; assay: Fusarium culmorum (root rot), liquid culture growth inhibition in nutrient broth; format: cell-based; conditions: PDB broth, 24 C, inhibition of growth determined photometrically after 48 hrs, read-out: control of fungal infection, Fusarium culmorum
Method: Mycelia fragments or conidia suspensions of a fungus, prepared either freshly from liquid cultures of the fungus or from cryogenic storage, are directly mixed into nutrient broth. DMSO solutions of the test compound (max. 10 mg/ml) is diluted with 0.025% Tween20 by factor 50 and 10 μl of this solution is pipetted into a microtiter plate (96-well format) and the nutrient broth containing the fungal spores/mycelia fragments is then added to give an end concentration of the tested compound. The test plates are incubated at 24° C. and 96% rH in the dark. The inhibition of fungal growth is determined photometrically after 2-6 days and antifungal activity is calculated.
Fusarium culmorum (root rot): Conidia of the fungus from cryogenic storage were directly mixed into nutrient broth (PDB potato dextrose broth). After placing a (DMSO) solution of the test compounds into a microtiter plate (96-well format) the nutrient broth containing the fungal spores was added. The test plates were incubated at 24 C and the inhibition of growth was determined photometrically after 48 hrs.

CCC(Oc1cc(C)c2ncc(I)cc2c1)C(=O)NC(C)(C)C=NOC (centres unmarked) [Compound No. 5, 2-(3-Iodo-8-methyl-quinolin-6-yloxy)-N-(2-methoxyimino-1,1-dimethyl-ethyl)-butyramide]
≥ 60%: pest or weed control at 200 ppm [1] | pest or weed control at 200 ppm [2] | pest or weed control at 200 ppm [3] | pest or weed control at 200 ppm [4] | pest or weed control at 200 ppm [5] | inhibition of growth at 200 ppm [6]

C=CCON=CC(C)(C)NC(=O)C(Oc1ccc2ncc(Br)cc2c1)SC (centres unmarked) [Compound No. 13, N-(2-Allyloxyimino-1,1-dimethyl-ethyl)-2-(3-bromo-quinolin-6-yloxy)-2-methylsulfanyl-acetamide]
≥ 60%: pest or weed control at 200 ppm [7] | pest or weed control at 200 ppm [1] | pest or weed control at 200 ppm [3] | inhibition of growth at 20 ppm [8] | pest or weed control at 200 ppm [5] | inhibition of growth at 200 ppm [6]

CO/N=C(\C)C(C)(C)NC(=O)C(Oc1cc(C)c2ncc(Br)cc2c1)SC (centres unmarked) [Compound No. 32, 2-(3-Bromo-8-methyl-quinolin-6-yloxy)-N-{2-[(E)-methoxyimino]-1,1-dimethyl-propyl}-2-methylsulfanyl-acetamide]
≥ 60%: pest or weed control at 200 ppm [1] | pest or weed control at 200 ppm [3] | pest or weed control at 200 ppm [4] | inhibition of growth at 200 ppm [9] | inhibition of growth at 20 ppm [8] | pest or weed control at 200 ppm [5]

CCC(Oc1ccc2ncc(I)cc2c1)C(=O)NC(C)(C=NOC)COC (centres unmarked) [Compound No. 68, 2-(3-Iodo-quinolin-6-yloxy)-N-(2-methoxyimino-1-methoxymethyl-1-methyl-ethyl]-butyramide]
≥ 60%: pest or weed control at 200 ppm [7] | pest or weed control at 200 ppm [1] | pest or weed control at 200 ppm [2] | pest or weed control at 200 ppm [3] | pest or weed control at 200 ppm [5] | inhibition of growth at 200 ppm [6]

CON=CC(C)(C)NC(=O)C(OC)Oc1ccc2ncc(C#C[Si](C)(C)C)cc2c1 (centres unmarked) [Compound No. 74, 2-Methoxy-N-(2-methoxyimino-1,1-dimethyl-ethyl)-2-(3-trimethylsilanylethynyl-quinolin-6-yloxy)-acetamide]
≥ 60%: pest or weed control at 200 ppm [7] | pest or weed control at 200 ppm [1] | pest or weed control at 200 ppm [3] | inhibition of growth at 20 ppm [8] | pest or weed control at 200 ppm [5] | inhibition of growth at 200 ppm [6]

CON=CC(C)(C)NC(=O)C(OC)Oc1cc(C)c2ncc(C#C[Si](C)(C)C)cc2c1 (centres unmarked) [Compound No. 75, 2-Methoxy-N-(2-methoxyimino-1,1-dimethyl-ethyl)-2-(8-methyl-3-trimethylsilanylethynyl-quinolin-6-yloxy)-acetamide]
≥ 60%: pest or weed control at 200 ppm [7] | pest or weed control at 200 ppm [1] | pest or weed control at 200 ppm [2] | pest or weed control at 200 ppm [3] | pest or weed control at 200 ppm [5]

C#Cc1cnc2ccc(OC(SC)C(=O)NC3(C=NOC)CCC3)cc2c1 (centres unmarked) [Compound No. 78, 2-(3-ethynyl-quinolin-6-yloxy)-N-[1-(methoxyimino-methyl)-cyclobutyl]-2-methylsulfanyl-acetamide]
≥ 60%: pest or weed control at 200 ppm [1] | pest or weed control at 200 ppm [2] | pest or weed control at 200 ppm [4] | inhibition of growth at 200 ppm [9] | inhibition of growth at 20 ppm [8] | pest or weed control at 200 ppm [5] | inhibition of growth at 200 ppm [6]

CON=CC(C)(C)NC(=O)C(Oc1cc(C)c2scnc2c1)SC (centres unmarked) [Compound No. 87, N-(2-methoxyimino-1,1-dimethyl-ethyl)-2-(7-methyl-benzothiazol-5-yloxy)-2-methylsulfanyl-acetamide]
≥ 60%: pest or weed control at 200 ppm [7] | inhibition of growth at 20 ppm [8]

CON=CC(C)(C)NC(=O)C(Oc1cc(C)c2ncsc2c1)SC (centres unmarked) [Compound No. 89, N-(2-Methoxyimino-1,1-dimethyl-ethyl)-2-(4-methyl-benzothiazol-6-yloxy)-2-methylsulfanyl-acetamide]
≥ 60%: pest or weed control at 200 ppm [7] | pest or weed control at 200 ppm [1] | pest or weed control at 200 ppm [3] | pest or weed control at 200 ppm [5] | inhibition of growth at 200 ppm [6]

CON=CCNC(=O)C(Oc1ccc2ncc(Br)cc2c1)SC (centres unmarked) [Compound No. 93, 2-(3-Bromo-quinolin-6-yloxy)-N-(2-methoxyimino-ethyl)-2-methylsulfanyl-acetamide]
≥ 60%: pest or weed control at 200 ppm [1] | pest or weed control at 200 ppm [2] | pest or weed control at 200 ppm [3] | pest or weed control at 200 ppm [4] | inhibition of growth at 200 ppm [9] | pest or weed control at 200 ppm [5] | inhibition of growth at 200 ppm [6]

CSC(Oc1cc(C)c2ncc(I)cc2c1)C(=O)NC(C)(C)CC=NOC1CCCCO1 (centres unmarked) [Compound No. 96, N-[1,1-Dimethyl-3-(tetrahydro-pyran-2-yloxyimino)-propyl]-2-(3-iodo-8-methyl-quinolin-6-yloxy)-2-methylsulfanyl-acetamide]
≥ 60%: pest or weed control at 200 ppm [7] | inhibition of growth at 20 ppm [8] | pest or weed control at 200 ppm [5] | inhibition of growth at 200 ppm [6]

CON=C(C)C(C)(C)NC(=O)C(Oc1ccc2ncc(Br)cc2c1)SC (centres unmarked) [Compound No. 111, 2-(3-Bromo-quinolin-6-yloxy)-N-{2-[(E or Z)-methoxyimino]-1,1-dimethyl-propyl}-2-methylsulfanyl-acetamide]
≥ 60%: pest or weed control at 200 ppm [1] | pest or weed control at 200 ppm [2] | pest or weed control at 200 ppm [4] | inhibition of growth at 200 ppm [9] | inhibition of growth at 20 ppm [8] | pest or weed control at 200 ppm [5] | inhibition of growth at 200 ppm [6]

C#Cc1cnc2c(C)cc(OC(CC)C(=O)NC(C)(C)C=NOCC=C)cc2c1 (centres unmarked) [Compound No. 138, N-(2-Allyloxyimino-1,1-dimethyl-ethyl)-2-(3-ethynyl-8-methyl-quinolin-6-yloxy)-butyramide]
≥ 60%: pest or weed control at 200 ppm [1] | pest or weed control at 200 ppm [2] | pest or weed control at 200 ppm [3] | pest or weed control at 200 ppm [4] | inhibition of growth at 20 ppm [8] | pest or weed control at 200 ppm [5] | inhibition of growth at 200 ppm [6]

CC#CCON=CC(C)(C)NC(=O)C(Oc1ccc2ncc(Br)cc2c1)SC (centres unmarked) [Compound No. 141, 2-(3-Bromo-quinolin-6-yloxy)-N-(2-but-2-ynyloxyimino-1,1-dimethyl-ethyl)-2-methylsulfanyl-acetamide]
≥ 60%: pest or weed control at 200 ppm [1] | pest or weed control at 200 ppm [3] | pest or weed control at 200 ppm [4] | inhibition of growth at 200 ppm [9] | inhibition of growth at 20 ppm [8] | pest or weed control at 200 ppm [5] | inhibition of growth at 200 ppm [6]

CSC(Oc1ccc2ncc(Br)cc2c1)C(=O)NC(C)(C)C=NOCCF (centres unmarked) [Compound No. 142, 2-(3-Bromo-quinolin-6-yloxy)-N-[2-(2-fluoro-ethoxyimino)-1,1-dimethyl-ethyl]-2-methylsulfanyl-acetamide]
≥ 60%: pest or weed control at 200 ppm [1] | pest or weed control at 200 ppm [3] | pest or weed control at 200 ppm [4] | inhibition of growth at 200 ppm [9] | inhibition of growth at 20 ppm [8] | pest or weed control at 200 ppm [5] | inhibition of growth at 200 ppm [6]

CCC(Oc1ccc2ncc(Br)cc2c1)C(=O)NC(C)(C)C=NOC (centres unmarked) [Compound No. 144, 2-(3-Bromo-quinolin-6-yloxy)-N-(2-methoxyimino-1,1-dimethyl-ethyl)-butyramide]
≥ 60%: pest or weed control at 200 ppm [1] | pest or weed control at 200 ppm [3] | pest or weed control at 200 ppm [4] | inhibition of growth at 200 ppm [9] | pest or weed control at 200 ppm [5] | inhibition of growth at 200 ppm [6]

CCC(Oc1cc(C)c2ncc(Br)cc2c1)C(=O)NC(C)(C)C=NOC (centres unmarked) [Compound No. 145, 2-(3-Bromo-8-methyl-quinolin-6-yloxy)-N-(2-methoxyimino-1,1-dimethyl-ethyl)-butyramide]
≥ 60%: pest or weed control at 200 ppm [7] | pest or weed control at 200 ppm [1] | pest or weed control at 200 ppm [2] | pest or weed control at 200 ppm [3] | pest or weed control at 200 ppm [5] | inhibition of growth at 200 ppm [6]

CCC(Oc1ccc2ncc(I)cc2c1)C(=O)NC(C)(C)C=NOCCF (centres unmarked) [Compound No. 155, N-[2-(2-Fluoro-ethoxyimino)-1,1-dimethyl-ethyl]-2-(3-iodo-quinolin-6-yloxy)-butyramide]
≥ 60%: pest or weed control at 200 ppm [1] | pest or weed control at 200 ppm [2] | pest or weed control at 200 ppm [3] | pest or weed control at 200 ppm [4] | inhibition of growth at 200 ppm [9] | pest or weed control at 200 ppm [5] | inhibition of growth at 200 ppm [6]
